Reference: ChEMBL document CHEMBL4425082, “Antimalarial Chemotherapy: Natural Product Inspired Development of Preclinical and Clinical Candidates with Diverse Mechanisms of Action” (J Med Chem, 2016)

Assays:
Plasmodium falciparum [1] = test: Antimalarial activity against Plasmodium falciparum 3D7 after 48 hrs; format: functional, organism-based; conditions: 3D7, 48 h
Plasmodium falciparum [2] = test: Antimalarial activity against Plasmodium falciparum 3D7 after 96 hrs; format: functional, organism-based; conditions: 3D7, 96 h
Plasmodium falciparum [3] = test: Antimalarial activity against Plasmodium falciparum W2 after 48 hrs; format: functional, organism-based; conditions: W2, 48 h
Plasmodium falciparum [4] = test: Antimalarial activity against chloroquine-resistant Plasmodium falciparum W2 by [3H]-hypoxanthine incorporation assay; format: functional, organism-based
[5] = Therapeutic index, ratio of IC50 for mouse J774 cells to IC50 chloroquine-resistant Plasmodium falciparum W2; format: toxicity; conditions: read-out: Ratio IC50
[6] = Therapeutic index, ratio of IC50 for mouse/rat NG108 cells to IC50 chloroquine-resistant Plasmodium falciparum W2; format: toxicity; conditions: read-out: Ratio IC50
Plasmodium berghei [7] = test: Antimalarial activity against Plasmodium berghei infected in po dosed mouse erythrocyte administered qd for 8 days by Giemsa staining based microscopic analysis; format: functional; conditions: 192 h
[8] = Inhibition of Plasmodium falciparum NDH2 expressed in HEK293 cells by spectrophotometric analysis; format: cell-based
Plasmodium berghei [9] = test: Antimalarial activity against blood stage Plasmodium berghei infected in mouse administered qd through oral gavage for 4 days; conditions: 96 h
[10] = Inhibition of Plasmodium falciparum cytochrome bc1 expressed in HEK293 cells by spectrophotometric analysis; format: cell-based
Plasmodium falciparum [11] = test: Antimalarial activity against Plasmodium falciparum FCR 3TC after 48 hrs; format: functional, organism-based
Plasmodium yoelii = test: Antimalarial activity against blood stage Plasmodium yoelii infected in mouse administered qd through oral gavage for 4 days; format: functional; conditions: 96 h
Plasmodium falciparum [12] = test: Antimalarial activity against atovaquone-resistant Plasmodium falciparum TM90C2B; format: functional, organism-based
Plasmodium falciparum [13] = test: Antimalarial activity against Plasmodium falciparum 3D7; format: functional, organism-based
Plasmodium falciparum [14] = test: Antimalarial activity against Plasmodium falciparum Dd2 assessed as reduction in parasite viability by [3H]-hypoxanthine incorporation assay; format: functional, organism-based
[15] = Oral bioavailability in rat; format: ADME, organism-based; conditions: in vivo
Plasmodium vinckei [16] = test: Antimalarial activity against Plasmodium vinckei infected in ip dosed mouse assessed as reduction in parasitemia administered tid by 4-day suppression test; format: functional; conditions: 96 h
Plasmodium vinckei [17] = test: Antimalarial activity against Plasmodium vinckei infected in po dosed mouse assessed as reduction in parasitemia administered tid by 4-day suppression test; format: functional; conditions: 96 h
Plasmodium berghei [18] = test: Antimalarial activity against GFP-transfected Plasmodium berghei ANKA infected in mouse assessed as reduction in parasitemia at 30 mg/kg, po administered on day 1 post infection measured on day 3 post infection; format: functional; set-up: scale not given: the % may be the effect or the level left
[19] = Oral bioavailability in rat at 3 mg/kg; format: ADME, organism-based; conditions: in vivo
[20] = Half life in human; format: ADME

With `CCC[C@@H]1C[C@@H](C(=O)N[C@@H]([C@H]2O[C@H](SC)[C@H](O)[C@@H](O)[C@H]2O)[C@H](C)Cl)N(C)C1` [CLINDAMYCIN] the IC50 (Plasmodium falciparum [1]) was greater than 10 µM, the IC50 (Plasmodium falciparum [2]) was 450 nM and the IC50 (Plasmodium falciparum [3]) was greater than 10 µM.

`O=C(C[C@H]1NCCC[C@@H]1O)Cn1cnc2ccccc2c1=O` gave an IC50 (Plasmodium falciparum [4]) of 2.5 nM, a selectivity ratio [5] of 3 and a selectivity ratio [6] of 3. It also gave an ED50 (Plasmodium berghei [7]) of 2.3 mg/kg.

Compound `Cc1c(-c2ccc(-c3ccc(OC(F)(F)F)cc3)nc2)[nH]c2ccccc2c1=O` has an IC50 [8] of 14 nM, an ED50 (Plasmodium berghei [9]) of 1.8 mg/kg and an ED90 (Plasmodium berghei [9]) of 4.7 mg/kg. For the same compound, the IC50 [10] was 15 nM.

`CC[C@H]1OC(=O)[C@H](C)[C@@H](O[C@H]2C[C@@](C)(OC)[C@@H](O)[C@H](C)O2)[C@H](C)[C@@H](O[C@@H]2O[C@H](C)C[C@H](N(C)C)[C@H]2O)[C@](C)(O)C[C@@H](C)C(=O)[C@H](C)[C@@H](O)[C@]1(C)O` [ERYTHROMYCIN] gave an IC50 (Plasmodium falciparum [11]) of 68 µM.

`COc1cc2[nH]c(C)c(-c3ccc(Oc4ccc(OC(F)(F)F)cc4)cc3)c(=O)c2cc1Cl` gave an ED50 (Plasmodium yoelii) of 0.1 mg/kg, an ED90 (Plasmodium yoelii) of 0.15 mg/kg and an IC50 (Plasmodium falciparum [12]) of 3 nM. The IC50 (Plasmodium falciparum [13]) was 5 nM.

Compound `O=CN(O)CCCP(=O)(O)O` [FOSMIDOMYCIN] has an IC50 (Plasmodium falciparum [14]) of 290 nM, a bioavailability [15] of 30% and an ED90 (Plasmodium vinckei [16]) of 5 mg/kg. It also gave an ED90 (Plasmodium vinckei [17]) of 20 mg/kg.

Compound `CC(=O)N(O)CCCP(=O)(O)O` [FR-900098] has an IC50 (Plasmodium falciparum [14]) of 90 nM.

Work on `O=C1C(O)=C([C@H]2CC[C@H](c3ccc(Cl)cc3)CC2)C(=O)c2ccccc21` [ATOVAQUONE] yielded an IC50 [8] greater than 10000 nM, an ED50 (Plasmodium yoelii) of 0.02 mg/kg and an ED90 (Plasmodium yoelii) of 0.04 mg/kg. The IC50 (Plasmodium falciparum [12]) was greater than 10000 nM, the IC50 [10] was 2 nM and the IC50 (Plasmodium falciparum [13]) was 0.4 nM.

With `CC(C)(N)CNC(=O)C[C@H]1CC[C@]2(CC1)OO[C@]1(O2)C2CC3CC(C2)CC1C3` [OZ277] the Activity (Plasmodium berghei [18]) was 99% and the bioavailability [19] was 13%.

With `c1cc([C@H]2CC[C@]3(CC2)OO[C@]2(O3)C3CC4CC(C3)CC2C4)ccc1OCCN1CCOCC1` [ARTEFENOMEL] the bioavailability [19] was 76%.

`CC[C@H]1OC(=O)[C@H](C)[C@@H](O[C@H]2C[C@@](C)(OC)[C@@H](O)[C@H](C)O2)[C@H](C)[C@@H](O[C@@H]2O[C@H](C)C[C@H](N(C)C)[C@H]2O)[C@](C)(O)C[C@@H](C)CN(C)[C@H](C)[C@@H](O)[C@]1(C)O` [AZITHROMYCIN] showed an IC50 (Plasmodium falciparum [11]) of 6.5 µM and a half-life [20] of 3.08 days.
